This note sets out measurements from the supplement of paper PMC11061612.

Common to all, as to assay: Bliss excess, mean over the matrix (fraction); higher = more synergy
Assay [1] deals with SW1271 (Small Cell Lung Carcinoma). Summed up:
(§1)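 Cell lines in DMEM/F12 or RPMI with 10% FBS were plated in 1536-well plates, held 24 hours at 37°C, 5% CO2, then given two-drug dose matrices for 72 hours (DMSO typically 0.2%). Viability was read by CellTiter-Glo 2.0 luminescence and scaled as inhibition from 0 (vehicle wells) to 1 (blank wells). Combination Emax is the second-highest inhibition in the matrix; Bliss excess is observed combination effect minus expected EA + EB − EA·EB, EA and EB being single-agent effects.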

Assay [2] relates to Hs-633T (Other Solid Carcinomas). The gist of the method: as §1
Assay [3] deals with SK-OV-3 (Ovarian Carcinoma). The gist of the method: as §1
A further assay relates to NCI-H28 (Mesothelioma). The gist of the method: as §1
Assay [4] has as its system SUP-T1 (T-Lymphoblastic Leukemia). Summed up:
as §1

Assay [5] concerns PCI-30 (Head and Neck Carcinoma). The gist of the method:
as §1

The test system of assay [6] is SW1116 (Colorectal Carcinoma). The gist of the method:
as §1

Assay [7] has as its system OC-314 (Ovarian Carcinoma). The gist of the method:
as §1

In assay [8] the test system is LU-139 (Small Cell Lung Carcinoma). Summed up: as §1
In assay [9] the test system is CAL-54 (Kidney Carcinoma). The gist of the method: as §1
In a further assay the test system is NCI-H2795 (Mesothelioma). The gist of the method:
as §1

For a further assay, the system named is HMV-II (Melanoma). The gist of the method: as §1
The test system of assay [10] is HDLM-2 (Hodgkin's Lymphoma). The gist of the method: as §1
Assay [11] concerns HCC-15 (Squamous Cell Lung Carcinoma). Summed up:
as §1

Assay [12] deals with UMC-11 (Other Solid Carcinomas). Summed up: as §1
Assay [13] concerns SW626 (Colorectal Carcinoma). The gist of the method:
as §1

The subject of assay [14] is KYSE-410 (Esophageal Squamous Cell Carcinoma). The gist of the method: as §1
The test system of assay [15] is TE-4 (Esophageal Squamous Cell Carcinoma). Summed up:
as §1

For assay [16], the system named is CAL-51 (Breast Carcinoma). The gist of the method:
as §1

In assay [17] the test system is MHH-PREB-1 (B-Cell Non-Hodgkin's Lymphoma). Summed up: as §1

With `Cc1nc(-c2cn3c(n2)-c2ccc(-c4cnn(C(C)(C)C(N)=O)c4)cc2OCC3)n(C(C)C)n1` [Taselisib] + O=C(Nc1ccc2[nH]nc(-c3ccncc3)c2c1)[C@@H]1CCN(CC(=O)N2CCN(c3ccc(-c4ncccn4)cc3)CC2)C1 [SCH772984] (first compound max 10 µM, 7x7, partner max 5 µM), the Bliss excess in [1] was -0.0096; in assay [2], 0.0891; in [3], 0.0609; with NCI-H28 (Mesothelioma), 0.0417; in assay [4], 0.0502; in assay [5], 0.023. Also, the Bliss excess was 0.0831 in assay [6]; 0.0521 in assay [7]; -0.0066 in [8]; -0.0024 in assay [9]; 0.0704 in the assay on NCI-H2795 (Mesothelioma); 0.0285 in the assay with HMV-II (Melanoma). Also, the Bliss excess in assay [10] was determined as 0.0529.

Take `COc1nnc2ccc(N3CCC(c4ccc(OCCN5CCN(C)C(=O)[C@H]5C)cc4)CC3)nn12` [AZD5153] + Cn1cnc2c(F)c(Nc3ccc(Br)cc3Cl)c(C(=O)NOCCO)cc21 [Selumetinib] (first compound max 1 µM, 7x7, partner max 10 µM): the Bliss excess in assay [1] is -0.0034; in assay [11], 0.0567; in assay [12], -0.031; in [2] it was 0.0302; in assay [13] it was -0.005; in assay [14] it was -0.0784. The Bliss excess in [3] was -0.0545; with NCI-H28 (Mesothelioma), -0.0199; in assay [4], -0.052; in [5], -0.0426; in [15], 0.0311; in assay [6] it was 0.0036. Also, the Bliss excess in assay [16] is 0.0099; in assay [7], -0.064; in [8], 0.0169; in [9], -0.0165; in the assay with NCI-H2795 (Mesothelioma) it was -0.03; with HMV-II (Melanoma), 0.0275. Besides, the results for the Bliss excess in assay [17] and in [10] were -0.0323 and -0.0407, respectively.

Take `C=CCn1c(=O)c2cnc(Nc3ccc(N4CCN(C)CC4)cc3)nc2n1-c1cccc(C(C)(C)O)n1` [AZD1775] + CCc1c2c(nc3ccc(O)cc13)-c1cc3c(c(=O)n1C2)COC(=O)[C@]3(O)CC [SN-38] (first compound max 1 µM, partner max 0.3 µM): the Bliss excess is -0.0391 in assay [1]; -0.0522 in [2]; -0.0557 in [3]; -0.0503 with NCI-H28 (Mesothelioma); -0.105 in [4]; 0.0013 in [5]. Moreover, the Bliss excess in [6] is -0.0987; in assay [7], 0.0032; in assay [8], -0.0526; in [9], -0.0327; with NCI-H2795 (Mesothelioma), -0.0951; in the assay with HMV-II (Melanoma) it was -0.122. For the same molecule, in assay [10], the Bliss excess was -0.0928.

For `CS(=O)(=O)CCNCc1ccc(-c2ccc3ncnc(Nc4ccc(OCc5cccc(F)c5)c(Cl)c4)c3c2)o1` [Lapatinib] + Cn1cnc2c(F)c(Nc3ccc(Br)cc3Cl)c(C(=O)NOCCO)cc21 [Selumetinib] (first compound max 10 µM, 7x7, partner max 10 µM), the Bliss excess was -0.0167 in [1]; 0.026 in assay [2]; -0.0287 in assay [3]; -0.0026 in the assay on NCI-H28 (Mesothelioma); -0.0679 in assay [4]; 0.0027 in assay [5]. Besides, the Bliss excess in assay [6] is 0.0744; in assay [7], 0.0644; in assay [8] it was -0.0161; in assay [9], 0.0022; with NCI-H2795 (Mesothelioma) it was -0.0488; with HMV-II (Melanoma), -0.141. The Bliss excess in assay [10] was 0.0023.

As for `Cc1c2c(nn1C)CSCc1cc(n(C)n1)CSc1cc(c3ccccc3c1)OCCCc1c(C(=O)O)n(C)c3c-2c(Cl)ccc13` [AZD5991] + CCN(CCO)CCCOc1ccc2c(Nc3cc(CC(=O)Nc4cccc(F)c4)[nH]n3)ncnc2c1 [AZD2811] (first compound max 1 µM, 7x7, partner max 1 µM), the Bliss excess in assay [1] is -0.0403; in [11], -0.0144; in [12], -0.0037; in assay [2] it was -0.0106; in assay [13], 0.0141; in assay [14] it was 0.045. Moreover, the Bliss excess in assay [3] was 0.0018; with NCI-H28 (Mesothelioma) it was 0.0191; in assay [4], 0.0561; in [5], 0.0256; in assay [15] it was 0.063; in assay [6] it was -0.003. In addition, the Bliss excess was 0.112 in assay [16]; 0.0457 in assay [7]; 0.0672 in [8]; -0.0018 in assay [9]; 0.041 in the assay on NCI-H2795 (Mesothelioma); 0.0147 in assay [17]. In addition, in assay [10], the Bliss excess was -0.0117.

As to `CCc1c2c(nc3ccc(O)cc13)-c1cc3c(c(=O)n1C2)COC(=O)[C@]3(O)CC` [SN-38] + O=C(c1cc(Cc2n[nH]c(=O)c3ccccc23)ccc1F)N1CCN(C(=O)C2CC2)CC1 [Olaparib] (first compound max 0.3 µM, 7x7, partner max 10 µM), the Bliss excess came to 0.129 in assay [1]; 0.035 in assay [12]; 0.17 in assay [2]; 0.0064 in assay [13]; 0.0014 in assay [14]; 0.0571 in assay [3]. Also, the Bliss excess in the assay with NCI-H28 (Mesothelioma) is 0.0588; in [4], 0.0435; in assay [5], 0.0572; in assay [15], -0.0103; in [6] it was 0.0152; in assay [16], 0.119. Moreover, the Bliss excess in [7] is 0.117; in [8] it was 0.0842; in assay [9], -0.0068; in the assay on NCI-H2795 (Mesothelioma), 0.08; in the assay with HMV-II (Melanoma) it was 0.0175; in assay [10], -0.0438.

For the molecule `CS(=O)(=O)CCNCc1ccc(-c2ccc3ncnc(Nc4ccc(OCc5cccc(F)c5)c(Cl)c4)c3c2)o1` [Lapatinib] + NC1(c2ccc(-c3nc4ccn5c(=O)[nH]nc5c4cc3-c3ccccc3)cc2)CCC1 [MK-2206] (first compound max 10 µM, 7x7, partner max 10 µM), the Bliss excess in assay [1] was 0.0083; in [2] it was 0.0256; in assay [3], 0.0257; in the assay with NCI-H28 (Mesothelioma), -0.0103; in assay [4] it was -0.0215; in [5] it was -0.0005. Besides, the Bliss excess in assay [6] was -0.01; in [7], 0.043; in assay [8], 0.0119; in [9], -0.0009; in the assay with NCI-H2795 (Mesothelioma) it was 0.0513; in the assay on HMV-II (Melanoma), -0.0337. Moreover, the Bliss excess in [10] was -0.0168.

For `COc1cc2ncnc(Nc3ccc(F)c(Cl)c3)c2cc1OCCCN1CCOCC1` [Gefitinib] + CC(C)n1c(=O)n(C)c2cnc3cc(F)c(-c4ccc(OCCCN5CCCCC5)nc4)cc3c21 [AZD1390] (first compound max 10 µM, 7x7, partner max 0.3 µM), the Bliss excess in assay [1] was -0.0388; in assay [11], -0.0442; in assay [12], -0.0399; in assay [2], -0.0684; in assay [13], -0.0777; in assay [14], -0.0779. Besides, the Bliss excess in assay [3] was -0.0442; in assay [4] it was -0.0389; in [5], -0.0871; in assay [15], -0.0286; in assay [6], -0.0835; in assay [16], -0.0485. The Bliss excess in assay [7] is -0.0314; in [8] it was -0.0251; in [9], -0.0718; in the assay with NCI-H2795 (Mesothelioma), -0.0631; in the assay with HMV-II (Melanoma) it was -0.0442; in assay [17] it was -0.0748. Also, in assay [10], the Bliss excess is -0.0768.
